Measured values taken from US20080091026A1, “NOVEL CRYSTAL OF N-[[(5S)-3-[4-(2,6-DIHYDRO-2-METHYLPYRROLO[3,4-C]PYRAZOL-5(4H)-YL)-3-FLUOROPHENYL]-2-OXO-5-OXAZOLIDINYL]METHYL]ACETAMIDE” (TRANSFORM PHARMACEUTICALS, INC., priority 2006, published 2008).

Experiments:
[1] = solubility of the crystal form; assay type: physicochemical; details: compared to prior known forms of the API
[2] = bioavailability of the crystal form; assay type: in vivo; details: compared to prior known forms of the API
[3] = background statement; cited from earlier work

SMILES	solubility [1]	bioavailability [2]	bioavailability in humans [3]
CC(=O)NC[C@H]1CN(c2ccc(N3Cc4cn(C)nc4C3)c(F)c2)C(=O)O1.O=C(O)CC(=O)O [Form α crystal]	improved	improved	–
CC(=O)NC[C@H]1CN(c2ccc(N3Cc4cn(C)nc4C3)c(F)c2)C(=O)O1 [N-[[(5S)-3-[4-(2,6-dihydro-2-methylpyrrolo[3,4-c]pyrazol-5(4H)-yl)-3-fluorophenyl]-2-oxo-5-oxazolidinyl]methyl]acetamide]	–	–	poor
